The text below walks through data of US9457007B2, “Prenylflavanone compounds for modulating diabetes” (NATUREWISE BIOTECH & MEDICALS CORPORATION, priority 2013, dated 2016).

Holding throughout (format): in vivo
Assay [1] relates to STZ-induced diabetic mice. As to the kind of experiment: Analysis of glycosylated hemoglobin HbA1c. Particulars: TPE study, TPE 36 mg/kg, DPP4I 370 mg/kg. The procedure:
STZ was formulated with an aqueous solution of sodium citrate (pH 4.5, 73.5 mg/5 mL) on ice, and then 100 μL of the formulation was dosed by intraperitoneal injection. […] The glycosylated hemoglobin was used for evaluation of the efficacy of the testing substance in the regulation of blood glucose. […] (New Taipei City, Taiwan) for analysis. The analysis may confer an average and standard deviation to each group of the mice. In the event the presence of the blood glucose modulation efficacy for the testing substance, this value would be lower; and in the event the absence of the blood glucose modulation efficacy for the testing substance, this value would be higher.

The subject of assay [2] is STZ-induced diabetic mice. As to the kind of experiment: Blood glucose in the STZ-induced diabetic mice. The conditions noted are these: propolins study; after administration for 8 weeks by gavage daily; PPC 9.0, PPD 6.75, PPF 4.5, PPG 4.5, Januvia 370 mg/kg/mouse. The procedure:
The male FBV mice of 5 weeks old, commercially available from BioLASCO Co., Ilan, Taiwan, were acclimatized for 1 week, prior to administration of streptozotocin (STZ) at 40 mg/kg for 3 consecutive days. STZ was formulated with an aqueous solution of sodium citrate (pH 4.5, 73.5 mg/5 mL) on ice, and then 100 μL of the formulation was dosed by intraperitoneal injection. From day 2 in the 3 consecutive days, the mice were dosed with 5% (w/v) glucose water for 6 consecutive days. After allowing the mice to rest for 10 days, blood glucose levels were measured. After administration of STZ for 1 week, about 5 μL of blood was collected from each of the mice at the tail vein, and was assayed for blood glucose by a blood glucose monitor and chip (FORA, California, U.S.A.). After 1 week, blood glucose was detected once more, and whether blood glucose was smooth or not was evaluated prior to grouping. The values of blood glucose in all of the mice induced to suffer from diabetes were brought to fall within about 300±50 mg/dL. […]
(§1) An appropriate amount of propolins and its relevant derivatives, such as PPA, PPB, PPC, PPD, PPE, PPF, PPG, PPH, PPI or PPJ, was dissolved with 3 ml 95% alcohol and then uniformly mixed with 80 μL Tween 80; after concentrating under reduced pressure for removal of alcohol, it was uniformly dispersed into 16 ml water to give a liquid mixture of propolins. This mixture was fed by 200 μL gavage into the diabetic mice designated as the propolins and its relevant derivative group.
(§2) Sitagliptin (trade name: Januvia), commercially available from American Merck Co., was used as the DPP4 inhibitor. An appropriate amount of sitagliptin was dissolved in water to provide a final concentration allowing administration of the mice at a dose of 370 mg/kg. In the following example, Januvia was representative of the DPP4 inhibitors and acted as a positive control group for reference.
(§3) Tween 80 (80 μL) was mixed into 16 ml water to give a placebo, which was fed by 200 μL gavage into the STZ-induced diabetic mice or normal mice (i.e., the mice without induction for diabetes). Oral gavage was carried out once at a fixed time each day, and weight, feedstuff intake and water intake were measured weekly until tests were finished at 12-13 weeks.

The test system of assay [3] is STZ-induced diabetic mice. As to the kind of experiment: Oral glucose tolerance test (OGTT). More on the design: reduction of AUC compared with the STZ group / extent of reduction of AUC compared with the STZ group: concentration or dose not given beside the values. The method, then:
(§4) The male FBV mice of 5 weeks old, commercially available from BioLASCO Co., Ilan, Taiwan, were acclimatized for 1 week, prior to administration of streptozotocin (STZ) at 40 mg/kg for 3 consecutive days. STZ was formulated with an aqueous solution of sodium citrate (pH 4.5, 73.5 mg/5 mL) on ice, and then 100 μL of the formulation was dosed by intraperitoneal injection. From day 2 in the 3 consecutive days, the mice were dosed with 5% (w/v) glucose water for 6 consecutive days. After allowing the mice to rest for 10 days, blood glucose levels were measured. After administration of STZ for 1 week, about 5 μL of blood was collected from each of the mice at the tail vein, and was assayed for blood glucose by a blood glucose monitor and chip (FORA, California, U.S.A.). After 1 week, blood glucose was detected once more, and whether blood glucose was smooth or not was evaluated prior to grouping. The values of blood glucose in all of the mice induced to suffer from diabetes were brought to fall within about 300±50 mg/dL.
After administration of the testing substance to the animals for 12 weeks, the OGTT test was performed for evaluation of secretion and effects of insulin. All of the mice in the test were administered with the testing substance and then fasted for 4 hours prior to blood sampling at the first point called point 0. Afterwards, the mice were fed by oral gavage with 200 μL glucose in water, equivalent to a dose of 1.0 g/kg. After administration, blood was collected for an assay of blood glucose at 15, 30, 60, 120 and 180 minutes, respectively. Therefore, a total of 6 points, including points at 0, 15, 30, 60, 120 and 180 minutes, were obtained. About 5 μL of blood was collected from each of the mice at the tail vein and was then assayed for blood glucose by the blood glucose monitor and chip (FORA, California, U.S.A.). The blood glucose values at the Y-axis were plotted against the time points at the X-axis. Each group was calculated for an area under curve for comparison. The efficacy in regulation of blood glucose was evaluated by the area showing a relationship between the testing substance and secretion and effects of insulin.

Assay [4] has as its system STZ-induced diabetic mice. Description: Feedstuff intake of the diabetic mice. Particulars: for feedstuff intake: propolins study. The procedure: as §4
(§5) An appropriate amount of the Taiwan Green Propolis alcohol extract was dissolved with 3 ml 95% alcohol and then uniformly mixed with 80 μL Tween 80 as a cosolvent; after concentrating under reduced pressure for removal of alcohol, it was dispersed into 16 ml water to give a liquid mixture of the Taiwan Green Propolis extract. This mixture was fed by 200 μL gavage into the diabetic mice designated as the Taiwan Green Propolis extract group.
as §1, §2, §3

In assay [5] the test system is STZ-induced diabetic mice. As to the kind of experiment: Water intake of the diabetic mice. The procedure: as §4, §5, §1, §2, §3

For `N[C@@H](CC(=O)N1CCn2c(nnc2C(F)(F)F)C1)Cc1cc(F)c(F)cc1F` [DPP4I, Sitagliptin, reference compound], the “reduction of the generation of glycosylated hemoglobin” value in assay [1] (13 weeks) was determined as 55%. Moreover, the “value of glycosylated hemoglobin” value in assay [1] (administration for 13 weeks) was “about 4.6%”. Besides, the blood glucose in assay [2] turned out to be 330 mg/dL. Further, the “blood glucose value in glucose tolerance test” value in assay [3] (TPE study, 0 point, glucose 1.0 g/kg oral, TPE 36 mg/kg, Januvia 370 mg/kg) is “about 260 mg/dL”; in assay [3] (TPE study, 30-minute time point after glucose in water) it was “about 420 mg/dL”; in assay [3] (TPE study, 180-minute time point), 240 mg/dL. Moreover, the “reduction of AUC compared with the STZ group” value in assay [3] (TPE study, OGTT) is 66.1%. Further, the “AUC value of blood glucose (integral area)” value in assay [3] (TPE study, OGTT 0-180 min, TPE 36 mg/kg, DPP4I 370 mg/kg) was “about 5.8×10^4”. Also, the “value of blood glucose in glucose tolerance test” value is given as “about 380 mg/dL” in assay [3] (propolins study, 0 point, PPC 9.0, PPD 6.75, PPF 4.5, PPG 4.5, DPP4I 370 mg/kg/mouse); “about 450 mg/dL” in assay [3] (propolins study, 30-minute time point after glucose in water); “about 450 mg/dL” in assay [3] (propolins study, 120-minute time point); 400 mg/dL in assay [3] (propolins study, 180-minute time point). The “AUC value for blood glucose (integral area)” value in assay [3] (propolins study, OGTT) is given as “about 7.2×10^4”. In assay [3] (propolins study, OGTT), the “extent of reduction of AUC compared with the STZ group” value is 42.0%. Moreover, in assay [4] (TPE study, 13 weeks, TPE 36 mg/kg/day, Januvia 370 mg/kg), the “effect on food intake” value is reported as “the test results were the same”. The feedstuff intake in assay [4] (at 1 week) was 5.5 g/mouse; in assay [4] (at 6 weeks), 6.5 g/mouse; in assay [4] (at 8 weeks), 6.4 g/mouse. Besides, the water intake is 5.4 mL/day/mouse in assay [5] (TPE study, after 8 weeks, TPE 36 mg/kg/day, Januvia 370 mg/kg); 3.8 mL/day/mouse in assay [5] (TPE study, after 13 weeks, TPE 36 mg/kg/day, Januvia 370 mg/kg); 7.0 mL/day/mouse in assay [5] (TPE study, first week, TPE 36 mg/kg/day, Januvia 370 mg/kg); 8.0 mL/mouse in assay [5] (propolins study, at 1 week); 12.0 mL/mouse in assay [5] (propolins study, at 6 weeks); 12.5 mL/mouse in assay [5] (propolins study, at 8 weeks).
